Among the test systems are HCT-15; UO-31; ACHN; NCI-H23; OVCAR-8; OVCAR-3; IGROV-1; HOP-62; A498; SK-MEL-2; OVCAR-4; KM12; K562; HL-60.
What all share (assay): NCI tumour cell line growth inhibition, 48 h

We go through 12 compounds from ChEMBL document CHEMBL1201862, “PubChem BioAssay data set” (2004).

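Five compound concentrations were applied to cells in 96-well plates for 48 hours; endpoints were derived by simple linear interpolation of the resulting dose-response curve. The concentration for 50% growth inhibition is given as GI50.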 Calls of active or inactive are those of the source. Cut-off read from the data, not from the text of the source: active = GI50 up to about 1.1 µM and inactive = higher. Bounds are passed on as bounds.

Turning to `CCOc1c(Cc2ccccc2)c(=O)n2c3ccccc3n3c(=O)n(C)c(=O)c1c23`, the GI50 in the test on HCT-15 was above 100 µM; in the test with UO-31, > 100 µM (inactive); with ACHN, > 100 µM (inactive); in the test with NCI-H23, > 100 µM (inactive); in the test with OVCAR-8, > 100 µM (inactive); with OVCAR-3 it was > 100 µM (inactive). Besides, the GI50 in the test with IGROV-1, with HOP-62, with A498, with SK-MEL-2, with OVCAR-4 and with KM12 was > 100 µM (inactive) in each case.

Regarding `N#CC(C(=O)C(=O)Nc1ccc(Cl)c(Cl)c1)c1ccc(Cl)cc1` (stereo not given), the GI50 is 23.4 µM (inactive) in the test on K562; 32.5 µM with HCT-15; 47.1 µM (inactive) in the test with UO-31; 47.2 µM (inactive) in the test on HL-60; 83 µM (inactive) in the test with ACHN; > 100 µM (inactive) with NCI-H23. The GI50 with OVCAR-8 was > 100 µM (inactive); in the test on OVCAR-3 it was 37.7 µM (inactive); in the test on IGROV-1, > 100 µM (inactive); with HOP-62, > 100 µM (inactive); in the test on A498, > 100 µM (inactive); in the test with SK-MEL-2, 34.2 µM (inactive). In addition, the GI50 with KM12 is > 100 µM (inactive).

Take `O=c1oc2c3ccc4ccccc4c3n(CCN3CCCCC3)c2c2ccccc12`: the GI50 is 15.1 µM (inactive) with K562; 38.2 µM in the test on HCT-15; 49.4 µM (inactive) in the test with UO-31; 89.5 µM (inactive) with HL-60; 31.6 µM (inactive) in the test on ACHN; 21.4 µM (inactive) with NCI-H23. Besides, the GI50 was 19 µM (inactive) with OVCAR-8; 18.5 µM (inactive) in the test with OVCAR-3; > 55.2 µM (inactive) in the test on IGROV-1; 21.3 µM (inactive) in the test on HOP-62; 26.5 µM (inactive) in the test with SK-MEL-2; 23.8 µM (inactive) in the test on OVCAR-4. Moreover, the GI50 in the test with KM12 is 79.1 µM (inactive).

As for `CCCCCCCCCOC(=S)NCCCCC`, the GI50 was 27 µM (inactive) in the test on K562; 23.9 µM with HCT-15; 17.2 µM (inactive) in the test on UO-31; 16.6 µM (inactive) in the test with HL-60; 29.1 µM (inactive) with ACHN; 26.7 µM (inactive) in the test on NCI-H23. For the same compound, the GI50 with OVCAR-8 was 38.7 µM (inactive); in the test with IGROV-1, 38.4 µM (inactive); in the test with HOP-62, 26.4 µM (inactive); in the test on A498, 24.3 µM (inactive); with OVCAR-4, 33.9 µM (inactive).

For the compound `C=CCNC(=S)N1c2ccccc2NC(=O)CC1C` (stereo not given), the GI50 in the test on K562 is > 100 µM (inactive); in the test with HCT-15, above 100 µM; with UO-31, > 100 µM (inactive); with HL-60, > 100 µM (inactive); in the test with ACHN it was > 100 µM (inactive); in the test on NCI-H23, > 100 µM (inactive). The GI50 in the test with OVCAR-8, in the test on OVCAR-3, in the test on IGROV-1, in the test on HOP-62, with SK-MEL-2 and with OVCAR-4 was > 100 µM (inactive) throughout. Besides, in the test on KM12, the GI50 is > 100 µM (inactive).

Consider `N=C(N)N/N=C(/CCN1CCCC1)CC(c1ccccc1)c1c(O)c2ccccc2oc1=O` (stereo not given), for which the GI50 in the test with K562, in the test with ACHN, with NCI-H23, in the test on OVCAR-3, with IGROV-1 and with HOP-62 was > 100 µM (inactive) throughout. Moreover, the GI50 in the test on SK-MEL-2 and in the test on OVCAR-4 was > 100 µM (inactive) throughout.

Consider `CCOC(=O)/C(=C/c1ccc(OC)c(OC)c1)C(=O)c1ccccc1`, for which the GI50 was 10.3 µM (inactive) in the test with K562; 15.1 µM with HCT-15; 14.4 µM (inactive) in the test on UO-31; 27.9 µM (inactive) in the test with ACHN; 17.7 µM (inactive) in the test on NCI-H23; 22.3 µM (inactive) with OVCAR-8. Also, the GI50 is 18 µM (inactive) in the test with OVCAR-3; 20.2 µM (inactive) in the test with IGROV-1; 19.5 µM (inactive) in the test on HOP-62; 22.3 µM (inactive) with A498; 38.5 µM (inactive) with SK-MEL-2; 21.4 µM (inactive) with OVCAR-4. Besides, the GI50 in the test with KM12 was 14.9 µM (inactive).

For the compound `O=c1cccccc1NCCCCCCCNc1cccccc1=O`, the GI50 is 17.8 µM (inactive) in the test on K562; 35.2 µM with HCT-15; 25.3 µM (inactive) with UO-31; 11.1 µM (inactive) in the test with HL-60; 26.7 µM (inactive) in the test on ACHN; 19.7 µM (inactive) with NCI-H23. Besides, the GI50 was 31.6 µM (inactive) with OVCAR-8; 24.5 µM (inactive) in the test with OVCAR-3; 54.2 µM (inactive) with IGROV-1; > 100 µM (inactive) in the test with HOP-62; 49 µM (inactive) in the test with SK-MEL-2; 27 µM (inactive) with OVCAR-4. The GI50 in the test on KM12 was 56.4 µM (inactive).

Turning to `COC(=O)NN1C(C)=C(C(=O)OC)C2(C#N)C(C(=O)OC)=C(C)N(NC(=O)OC)C12N` (stereo not given), the GI50 in the test on K562 was > 100 µM (inactive); in the test with HCT-15, above 100 µM; in the test with UO-31, > 100 µM (inactive); in the test on HL-60 it was > 100 µM (inactive); with ACHN, > 100 µM (inactive); in the test with NCI-H23 it was > 100 µM (inactive). In addition, the GI50 with OVCAR-8, in the test on IGROV-1, with HOP-62, in the test with A498, in the test on SK-MEL-2 and with OVCAR-4 was > 100 µM (inactive) throughout.

As to `OC[C@@H]1CC#C/C=C\C#CC[C@@H]1CO`, the GI50 was > 100 µM (inactive) in the test with K562; above 100 µM in the test on HCT-15; > 100 µM (inactive) in the test on UO-31; > 100 µM (inactive) in the test on HL-60; > 100 µM (inactive) in the test on NCI-H23; > 100 µM (inactive) with OVCAR-8. Further, the GI50 in the test with OVCAR-3, in the test with IGROV-1, in the test on HOP-62, with SK-MEL-2, with OVCAR-4 and with KM12 was > 100 µM (inactive) in each case.

With `CCNC(=O)O/N=C1/C=C2CC[C@@H]3C(CC[C@@]4(C)C3CC[C@@H]4OC(=O)NCC)[C@@]2(C)CC1` (stereo not given in full), the GI50 in the test on K562 is 2.87 µM (inactive); in the test with HCT-15, 2.77 µM; in the test on UO-31, 1.78 µM (inactive); in the test with ACHN, 2.75 µM (inactive); in the test on NCI-H23, 3.07 µM (inactive); in the test with OVCAR-8 it was 4.32 µM (inactive). Further, the GI50 with IGROV-1 is 7.5 µM (inactive); in the test on HOP-62, 11.4 µM (inactive); in the test with A498 it was > 100 µM (inactive); in the test on SK-MEL-2, 2.21 µM (inactive); with OVCAR-4 it was 2.47 µM (inactive); with KM12, 2.54 µM (inactive).

For `CC(C)c1cccc(C(C)C)c1NC(=O)C(=O)C1SC(=S)NC1=O` (stereo not given), the GI50 with K562 is > 100 µM (inactive); in the test on HCT-15, above 100 µM; with UO-31, > 100 µM (inactive); with HL-60, > 100 µM (inactive); in the test with ACHN it was > 100 µM (inactive); in the test with NCI-H23 it was > 100 µM (inactive). The GI50 in the test on OVCAR-8, in the test on IGROV-1, in the test with HOP-62, in the test on A498, in the test on SK-MEL-2 and in the test with OVCAR-4 was > 100 µM (inactive) in each case. The GI50 with KM12 is > 100 µM (inactive).
